Laboratory results: US4027039A (priority 1975, dated 1977)
“And” between values parts separate entries of the source, which are not always exact repeats. Identical values can stand only once. “Also recorded” adds a separate entry of the source. Counter-ions that a name gives are not always drawn. Like-named read-outs stand apart in the source and are kept apart here.

Key:
Vaccinia IHD virus = format: in vivo, mouse
Neurovaccinia virus = assay: Neurovaccinia in mice; settings: intraperitoneal
viral infections = assay: Antiviral screening in animals, general statements; settings: mouse, in vivo
[1] = test system: Influenza, Ann Arbor virus; assay: Influenza Ann Arbor in mice, oral; schedule by table; late read day 5 (Tables 15, 25, 29, 30), 6 (18, 20, 22, 23, 26, 27, 28, 54), 7 (14, 19, 21, 24, 53, 56), 8 (16, 17, 51), 9 (11, 55); format: in vivo, mouse
[2] = test system: Influenza B Maryland virus; assay: Influenza B Maryland in mice, oral; format: in vivo, mouse
Columbia SK Polio virus = format: in vivo, mouse; settings: mouse, in vivo
Vaccinia virus = format: in vivo, rabbit; settings: rabbit, in vivo

For `NNC(N)=O` [semicarbazide, hydrochloride], the “Statistical Significance of Tail Lesions” value (Vaccinia IHD virus; 10 ng, day 6) was “< .01”, the “Statistical Significance of Tail Lesions” value (Vaccinia IHD virus; 10 ng, day 11) was “< .05” and the “Statistical Significance of Tail Lesions” value (Vaccinia IHD virus; 10 ng, day 12) was “< .05”. The “Statistical Significance of Tail Lesions” value (Vaccinia IHD virus; 10 ng, day 17) was “< .05”, the “Statistical Significance of Tail Lesions” value (Vaccinia IHD virus; 1 μg, day 6) was “< .01” and the “Statistical Significance of Tail Lesions” value (Vaccinia IHD virus; 1 μg, day 8) was “< .01”. The “Statistical Significance of Tail Lesions” value (Vaccinia IHD virus; 1 μg, day 10) was “< .01”, the “Statistical Significance of Tail Lesions” value (Vaccinia IHD virus; 1 μg, day 11) was “< .01” and the “Statistical Significance of Tail Lesions” value (Vaccinia IHD virus; 1 μg, day 12) was “< .01”. The “Statistical Significance of Tail Lesions” value (Vaccinia IHD virus; 1 μg, day 14) was “< .01”, the “Statistical Significance of Tail Lesions” value (Vaccinia IHD virus; 1 μg, day 17) was “< .01” and the “Statistical Significance of Tail Lesions” value (Vaccinia IHD virus; 1 μg, day 21) was “< .05”. For the same compound, the “Statistical Significance of Tail Lesions” value (Vaccinia IHD virus; 10 [μg], day 7) was “< .01”, the “Statistical Significance of Tail Lesions” value (Vaccinia IHD virus; 10 [μg], day 10) was “< .05” and the “Statistical Significance of Tail Lesions” value (Vaccinia IHD virus; 10 [μg], day 11) was “< .01”. The “Statistical Significance of Tail Lesions” value (Vaccinia IHD virus; 10 [μg], day 12) was “< .01”, the “Statistical Significance of Tail Lesions” value (Vaccinia IHD virus; 10 [μg], day 14) was “< .01” and the “Statistical Significance of Tail Lesions” value (Vaccinia IHD virus; 10 [μg], day 17) was “< .01”. For the same compound, the “Statistical Significance of Tail Lesions” value (Vaccinia IHD virus; 10 [μg], day 21) was “< .05”, the “Statistical Significance of Tail Lesions” value (Vaccinia IHD virus; 100 [ng], day 7) was “< .05” and the “Statistical Significance of Tail Lesions” value (Vaccinia IHD virus; 100 [ng], day 11) was “< .05”. For the same compound, the “Statistical Significance of Tail Lesions” value (Vaccinia IHD virus; 100 [ng], day 12) was “< .05”, the “Statistical Significance of Tail Lesions” value (Vaccinia IHD virus; 100 [ng], day 14) was “< .05” and the “Statistical Significance of Tail Lesions” value (Vaccinia IHD virus; 100 [ng], day 17) was “< .01”. The “Statistical Significance of Tail Lesions” value (Vaccinia IHD virus; 100 [ng], day 21) was “< .01”, the “No. animals surviving after 6 days” value (Neurovaccinia virus; total dose .0075 μg) was 1/2 and the Survivors (Neurovaccinia virus; total dose .75 μg) was 0. The activity in words (viral infections) was “effective” and the “No. animals surviving after 6-9 days” value (Herpes virus; total dose 5 μg, hydrochloride) was 5.

In the case of `CN1C(=O)/C(=N\NC(N)=S)c2ccccc21` [Methisazone, 1-methylindole-2,3-dione, 3-thiosemicarbazone, reference compound], the activity in words (viral infections) is reported as “active against pox virus infections of mice; also recorded: activity”, the “No. animals surviving after 5-9 days” value ([1]; total dose 5 μg) is reported as 4 and the Survivors ([1]; total dose 5 μg) is reported as 0. For the same compound, the “No. animals surviving after 5-9 days” value ([1]; total dose 50 μg) was 3, the Survivors ([1]; total dose 50 μg) was 0 and the “No. animals surviving after 5-9 days” value ([1]; total dose .00005 μg) was 6. The Survivors ([1]; total dose .00005 μg) was 0, the “No. animals surviving after 5-9 days” value ([1]; total dose .0005 μg) was 5 and the Survivors ([1]; total dose .0005 μg) was 0. The “No. animals surviving after 5-9 days” value ([1]; total dose .005 μg) was 5, the Survivors ([1]; total dose .005 μg) was 0 and the “No. animals surviving after 5-9 days” value ([1]; total dose .05 μg) was 4. For the same compound, the Survivors ([1]; total dose .05 μg) was 0, the “No. animals surviving after 5-9 days” value ([1]; total dose .5 μg) was 6 and the Survivors ([1]; total dose .5 μg) was 0. For the same compound, the activity in words ([2]; mouse, in vivo) was “active”, the “No. animals surviving when 18/20 of controls are dead” value ([2]; total dose 6 ng) was 4 and the Survivors ([2]; total dose 6 ng) was 2. The “No. animals surviving when 18/20 of controls are dead” value ([2]; total dose 60 ng) was 4, the Survivors ([2]; total dose 60 ng) was 2 and the “No. animals surviving when 18/20 of controls are dead” value ([2]; total dose 600 ng) was 2. For the same compound, the Survivors ([2]; total dose 600 ng) was 2, the “No. animals surviving when 18/20 of controls are dead” value ([2]; total dose 6 μg) was 4 and the Survivors ([2]; total dose 6 μg) was 1. For the same compound, the “No. animals surviving after 6-9 days” value (Herpes virus; total dose .0000005 μg) was 4 and 3, the “No. animals surviving after 6-9 days” value (Herpes virus; total dose .05 μg) was 1 and the “No. animals surviving when 100% (or given fraction) of controls are dead” value (Herpes virus; total dose .05 μg) was 0. It also gave a Survivors (Herpes virus; total dose .05 μg) of 0.

For `CCC(C)=NNC(N)=S` [thiosemicarbazone], the “instances of statistically significant geometric mean survival time” value (Columbia SK Polio virus) was “two” and the “effect on pox formation” value (Vaccinia virus) was “very striking effects of the drug on the pox formation; also recorded: highly significant diminution of pox formation”.
